Here are results for twelve molecules from PubChem BioAssay (NCI).

Structures are written as SMILES.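 Protocol summary: plate cells (96-well), add compound at 5 concentrations, incubate 48 h, interpolate endpoints linearly. GI50 = concentration required for 50% inhibition of growth. TGI: total growth inhibition.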

Common to all, as to experiment: growth of human tumour cells (NCI), 48 h
The test system of assay [1] is ACHN renal.
In assay [2] the test system is CCRF-CEM leukemia.
The subject of assay [3] is IGROV1 ovarian.
Assay [4] deals with MALME-3M melanoma.
Assay [5] relates to OVCAR-5 ovarian.
The subject of assay [6] is RXF 393 renal.
Assay [7] relates to SK-MEL-2 melanoma.
Assay [8] relates to SK-MEL-28 melanoma.
The subject of assay [9] is SNB-75 CNS.

In the case of `CCN(CC)c1ccc(N=Nc2ccc(-c3nc4cccnc4o3)cc2)cc1`, the TGI in assay [1], in [2], in [3], in assay [4], in [5] and in assay [6] was more than 100 µM each time. For the same molecule, the TGI in assay [7], in [8] and in assay [9] was more than 100 µM in each case.

As to `CC(=O)NC(CCCCNC(=O)OCc1ccccc1)C(=O)NCc1ccccc1` (stereo not drawn), the TGI in assay [1], in [2], in [3], in [4], in assay [5] and in [6] was more than 100 µM in each case. The TGI in [7], in assay [8] and in assay [9] was more than 100 µM in each case.

Turning to `C=CCn1c(C)nc2cc(Nc3nc(Nc4ccc5nc(C)n(CC=C)c5c4)c4ccccc4n3)ccc21`, the GI50 in assay [1] is 0.292 µM; in [2], 0.279 µM; in assay [5], 0.751 µM; in assay [6] it was 0.354 µM; in assay [8], 1.41 µM; in assay [9], 0.745 µM. In addition, the TGI in assay [1] was found to be 1.01 µM; in assay [2], 0.76 µM; in assay [5], 2 µM; in assay [6] it was 1.37 µM; in assay [8], 3.16 µM; in assay [9], 2.3 µM.

Regarding `N#CCCc1nc2ccc(Br)cc2c(=O)n1CCO`, the TGI in assay [2], in assay [3], in assay [4], in [6], in assay [7] and in assay [8] was more than 100 µM each time. The molecule also displayed a TGI in assay [9] of more than 100 µM.

`O=C(Nc1ccc(Cl)cc1)Nc1ccc(Cl)c(Cl)c1`: the GI50 in assay [1] was 3.71 µM; in assay [2], 2.25 µM; in assay [3], 4.78 µM; in assay [5], 4.29 µM; in [7], 3.07 µM; in assay [8] it was 6.07 µM. Further, the GI50 in assay [9] was 2.59 µM. For the same molecule, the TGI in [1] was more than 100 µM; in assay [2], 7.8 µM; in [3] it was more than 100 µM; in assay [5], more than 100 µM; in [7], 32.8 µM; in assay [8], more than 100 µM. The TGI in [9] is more than 100 µM.

For the molecule `CCOc1ccccc1NC(=O)/C=C1\NC(=O)CS1`, the TGI in [2], in assay [3], in assay [4], in assay [5], in assay [6] and in assay [7] was more than 100 µM each time. The TGI is more than 100 µM in assay [8] and 98.7 µM in assay [9].

For `COP1(=O)CC2C(Cl)(Cl)C2(C)C1` (stereo not drawn), the TGI in [2], in assay [3], in assay [6], in [8] and in assay [9] was more than 100 µM throughout.

In the case of `COc1ccc(/C=C/c2cc(OC)c(OC)c(OC)c2)cc1NC(=O)/C=C/c1ccc(F)cc1`, the GI50 is 6.3 µM in [1]; 2.99 µM in assay [2]; 5.71 µM in [3]; 3.87 µM in [4]; 5.97 µM in [5]; 1.41 µM in [6]. In assay [8], the GI50 is 5.04 µM. Further, the TGI was more than 100 µM in assay [1]; more than 31.1 µM in assay [2]; more than 100 µM in [3]; more than 100 µM in assay [4]; more than 100 µM in [5]; 4.88 µM in assay [6]. This molecule also displayed a TGI in assay [8] of more than 100 µM.

Consider `Cc1cc2nc3c(=O)n(C)c(=O)nc-3n(-c3ccc(Cl)cc3)c2cc1C`, for which the TGI was 24.7 µM in assay [1]; 45.4 µM in assay [2]; 38.8 µM in assay [3]; 22.3 µM in assay [4]; 32.6 µM in [5]; 34.9 µM in [7]. Besides, the TGI in assay [8] is 33.4 µM; in [9] it was 24.4 µM.

As for `CC(=O)NC1=N/C(=C/c2cc([N+](=O)[O-])ccc2O)CN1C`, the TGI in [1], in [3], in assay [5], in [7], in assay [8] and in assay [9] was more than 100 µM in each case.

As to `O=C(Nc1ccccc1)c1ccc(Cl)c([N+](=O)[O-])c1`, the TGI in [2] worked out at 28.7 µM; in assay [3], 54.3 µM; in assay [4], 42.4 µM; in assay [6], 75.5 µM; in [7] it was 32.4 µM; in assay [8], 61.4 µM. In [9], this molecule displayed a TGI of 71.6 µM.

Consider `COc1cc(-c2nc3ccc(C)cc3[nH]2)ccc1OCC(=O)N=Nc1c(O)[nH]c2ccccc12`, for which the GI50 was 3.39 µM in assay [1]; 1.73 µM in assay [3]; 1.68 µM in assay [4]; 1.83 µM in [5]; 1.65 µM in [6]; 1.77 µM in assay [8]. Further, the GI50 in [9] was 1.07 µM. The TGI in assay [1] came out at 13.6 µM; in [3], 3.48 µM; in [4], 3.18 µM; in assay [5], 4.19 µM; in assay [6], 3.17 µM; in [8] it was 3.16 µM. The same molecule returned a TGI in assay [9] of 2.91 µM.
